# Assay results published in patent US4780466A, “Arylpiperazinylalkoxy derivatives of cyclic imides” (Hoechst-Roussel Pharmaceuticals, Inc., priority 1988, dated 1988).
# Counter-ions that a name gives are not always drawn.
# How the values were obtained:
# Assay type in all cases: in vivo
# [1] = tested on: mice; experiment: 2-phenyl-1,4-benzoquinone-induced writhing test in mice (analgesic activity); details: Mus musculus, sc, read-out: Phenylquinone Writhing ED50
# Text: Compounds of the present invention are also useful as analgesic agents due to their ability to alleviate pain in mammals. […] Exptl. Biol. Med., 95,729 (1957)]
# [2] = tested on: mice; experiment: Climbing mice assay (antipsychotic activity, apomorphine-induced climbing); details: Mus musculus; ip, 30 minutes prior to apomorphine 1.5 mg/kg s.c.; CK-1 male mice
# Experimental: Antipsychotic activity is determined in the climbing mice assay by methods similar to those described by P. Protais, et al., Psychopharmacol., 50, 1 (1976) and B. Costall, Eur. J. Pharmacol., 50, 39, (1978).
# The subject CK-1 male mice (23-27 grams) are group-housed under standard laboratory conditions. The mice are individually placed in wire mesh stick cages (4'×4" by 10") and are allowed one hour for adaptation and exploration of the new environment. Then apomorphine is injected subcutaneously at 1.5 mg/kg, a dose causing climbing in all subjects for 30 minutes. Compounds to be tested for antipsychotic activity are injected intraperitoneally 30 minutes prior to the apomorphine challenge at a screening dose of 10 mg/kg.
# For evaluation of climbing, 3 readings are taken at 10, 20 and 30 minutes after apomorphine administration according to the following scale:
# 4 paws on bottom (no climbing)
# 2 paws on the wall (rearing)
# 4 paws on the wall (full climb)
# Mice consistently climbing before the injection of apomorphine are discarded.
# With full-developed apomorphine climbing, the animals are hanging onto the cage walls, rather motionless, over longer periods of time. By constrast, climbs due to mere motor stimulation usually last only a few seconds.
# The climbing scores are individually totaled (maximum score: 6 per mouse over 3 readings) and the total score of the control group (vehicle intraperitoneally; apomorphine subcutaneously) is set to 100%. ED50 values with 95% confidence limits, calculated by a linear regression analysis of some of the compounds of this invention are presented in Table 1.
# [3] = tested on: rats; experiment: Geller-conflict paradigm with rats (anxiolytic activity); details: 10 mg/kg i.p.; pretreat interval usually one-half hour; male rats
# Text: Compounds I of the present invention are also useful as anxiolytic agents. […] See Geller, Irving and Seifter, Psychopharmacologia Col. 1, 482-492 (1962). Male rats are used as test subjects. They are housed individually and food and water are available ad libitum until they are 300 to 400 grams prior to the start of training. Subsequently they are food deprived until their body weight is reduced to approximately 80% of original and it is maintained at this level by a restricted food diet.
# The programming and test equipment consists of solid state devices, shockers and cages within sound-attentuated environmental enclosures. The data is recorded on both solid state print-out counters and cumulative recorders. The cages are equipped with a house-light, a single-lever, cue-lights, a liquid dipper, a speaker and a grid-floor connected to a shocker. Sweetened condensed milk delivered by the liquid-dipper serve as the positive reinforcement for all subjects.
# The subjects are trained to lever-press for the milk reward in two distinct response-reward sections. In the anxiety or "conflict" segment, signaled by onset of both tone and cue-lights, a dipper of milk is delivered in response to each lever-press (CRF schedule of reinforcement). However lever presses during this period are also accompanied by a 40 m sec pulse of aversive footshock through the grid-floor. […]
Structure (SMILES),ED50 [1] [mg/kg],ED50 [2] [mg/kg],Geller CRF ratio [3]
"COc1ccccc1N1CCN(CCCON2C(=O)CC3(CCCC3)CC2=O)CC1 [8-[3-[4-(2-Methoxyphenyl)-1-piperazinyl-propyloxy]-8-azaspiro[4.5]decan-7,9-dione hydrochloride hemihydrate]",1.1,–,–
"O=C1CC2(CCCC2)CC(=O)N1OCCCN1CCN(c2nsc3ccccc23)CC1 [Example 11, 8-[3-[4-(1,2-Benzisothiazol-3-yl)-1-piperazinyl]propyloxy]-8-azaspiro[4.5]decan-7,9-dione hydrochloride hemihydrate]",0.9,5.7,–
"Cc1cccc(N2CCN(CCCON3C(=O)CC4(CCCC4)CC3=O)CC2)c1 [Example 5, 8-[3-[4-(3-Methylphenyl)-1-piperazinyl]propyloxy]-8-azaspiro[4.5]decan-7,9-dione hydrochloride hemihydrate]",–,–,7.5
"CNC1=Nc2ccc(Cl)cc2C(c2ccccc2)=[N+]([O-])C1 [Chlorodiazepoxide, reference compound]",–,–,3.6
"CC(C)=CCN1CCC2(C)c3cc(O)ccc3CC1C2C (centres unmarked) [Pentazocine, reference compound]",1.3,–,–
"COc1cccc(N2CCN(CCCON3C(=O)CC4(CCCC4)CC3=O)CC2)c1 [Example 8, 8-[3-[4-(3-Methoxyphenyl)-1-piperazinyl]propyloxy]-8-azaspiro-[4.5]decan-7,9-dione hydrochloride hemihydrate]",–,10.9,–
"CN1CCN(C2=Nc3cc(Cl)ccc3Nc3ccccc32)CC1 [Clazapine, reference compound]",–,8.1,–
